system: swine adipose tissue; assay: Inhibition of lipogenesis (incorporation of 14C-glucose into lipid) in swine adipose tissue slices; format: cell-based; conditions: Sus scrofa, 100 micrograms per milliliter, 37° C., 2 hours, glucose-U-14C, insulin, 5% DMSO, triplicate, read-out: Percent Inhibition of lipogenesis compared to control
Source text: The manner in which they cause this effect is not known with certainty; it is believed that they interfere with the synthesis of fatty acids in the tissues. Their effectiveness for this purpose has been ascertained by immersing sales of swine adipose tissue in a liquid medium containing radioactive glucose and the test chemical for a period of time, then isolating the lipid from the treated tissue and determining the incorporation of the radioactive carbon into lipid by means of scintillation counting techniques. These tests were conducted in swine adipose tissues because in swine, the primary site of lipogenesis--i.e., fatty acid synthesis--appears to be adipose tissue.
Described in more detail, the tests were conducted according to the following general procedure:
150 milligrams of slices of swine adipose tissue were incubated at 37° C. for 2 hours with shaking in 3 milliliters of Krebs-Ringer bicarbonate solution containing one-half the normal calcium ion concentration, 60 micromoles of glucose, 0.5 micro-Curie of glucose-U^14 C, and 300 microunits of insulin, and 5% dimethylsulfoxide (DMSO). The test compounds were added as a solution or suspension in DMSO and were present at a concentration of 100 micrograms per milliliter of the incubation mixture.
The incubation was terminated by addition of 0.25 milliliter of 1 N sulfuric acid. The resulting mixture was extracted with a total of 25 milliliters of chloroform/methanol (2:1 v/v). The extracts were washed according to Folch et al. (J. Biol. Chem. 226, 497-509, (1957)), air dried, and counted in a liquid scintillation counter with 15 milliliters of counting fluid (two parts toluene containing 0.4% w/v New England Nuclear Omnifluor/1part Triton X-100). The tests were conducted in triplicate and were accompanied by control tests in which all ingredients,proportions and conditions were the same except that no test compound was included. From the data obtained were calculated the precent inhibition of lipid synthesis by the test compounds in each case. The data obtained from the tests are set out in Table 1,as the percent inhibition of lipogenesis compared to the results obtained in the control tests wherein only the test compound was omitted.

`O=C(c1ccccc1)c1ccc2oc(C(=O)O)cc2c1` [Compound 6] was tested. Which inhibition at 100 µg/mL did it give?
The inhibition at 100 µg/mL was 44%.

For `COc1ccc2cc(C(=O)O)oc2c1OC` [Compound 14], which inhibition at 100 µg/mL is on record?
Its inhibition at 100 µg/mL is 24%.

For `O=C(O)C1Cc2cc(Cc3ccccc3)ccc2O1` (stereo not drawn) [Compound 20], which inhibition at 100 µg/mL is on record?
The inhibition at 100 µg/mL was 40%.

Which inhibition at 100 µg/mL does the source give for `O=C(O)C1Cc2c(Oc3ccccc3)cccc2O1` (stereo not drawn) [Compound 23] here?
The inhibition at 100 µg/mL was 27%.

Which inhibition at 100 µg/mL does the source give for `CCC(C)c1ccc2c(c1)CC(C(=O)O)O2` (stereo not drawn) [Compound 18] here?
Its inhibition at 100 µg/mL is 35%.

For `O=C(O)C1Cc2cc(-c3ccccc3)ccc2O1` (stereo not drawn) [Compound 2, 2,3-dihydro-5-phenyl-2-benzofurancarboxylic acid], which inhibition at 100 µg/mL is on record?
The inhibition at 100 µg/mL was 50%.

For `O=C(O)c1cc2cc(C3CCCCC3)ccc2o1` [Compound 4], which inhibition at 100 µg/mL is on record?
The inhibition at 100 µg/mL was 91%.

With `O=C(O)c1cc2c(Oc3ccccc3)cccc2o1` [Compound 9, 4-phenoxy-2-benzofurancarboxylic acid] as the molecule, how does the inhibition at 100 µg/mL read?
Its inhibition at 100 µg/mL is 83%.

`O=C(O)c1cc2cc(-c3ccc(O)cc3)ccc2o1` [Compound 16, 5-(4-hydroxyphenyl)-2-benzofurancarboxylic acid] was tested. Which inhibition at 100 µg/mL did it give?
The inhibition at 100 µg/mL was 30%.

Which inhibition at 100 µg/mL does the source give for `O=C(O)C1Cc2ccc(Oc3ccccc3)cc2O1` (stereo not drawn) [Compound 22] here?
Its inhibition at 100 µg/mL is 62%.

Which inhibition at 100 µg/mL does the source give for `O=C(O)c1cc2ccc(Oc3ccccc3)cc2o1` [Compound 5] here?
The inhibition at 100 µg/mL was 86%.

`CCCCCCOc1ccc2c(c1)CC(C(=O)O)O2` (stereo not drawn) [Compound 21] was tested. Which inhibition at 100 µg/mL did it give?
Its inhibition at 100 µg/mL is 49%.

`CC(=O)Oc1ccc(-c2ccc3oc(C(=O)O)cc3c2)cc1` [Compound 11, 5-(4-(acetyloxy)phenyl)-2-benzofurancarboxylic acid] was tested. Which inhibition at 100 µg/mL did it give?
Its inhibition at 100 µg/mL is 80%.

Which inhibition at 100 µg/mL does the source give for `O=C(O)c1cc2cc(-c3ccc(Cl)cc3)ccc2o1` [Compound 12, 5-(4-chlorophenyl)-2-benzofurancarboxylic acid] here?
Its inhibition at 100 µg/mL is 55%.

For `O=C(O)C1Cc2cc(-c3ccc(Cl)cc3)ccc2O1` (stereo not drawn) [Compound 24], which inhibition at 100 µg/mL is on record?
Its inhibition at 100 µg/mL is 56%.

Which inhibition at 100 µg/mL does the source give for `CC(=O)c1ccc(-c2ccc3oc(C(=O)O)cc3c2)cc1` [Compound 10, 5-(4-acetylphenyl)-2-benzofurancarboxylic acid] here?
The inhibition at 100 µg/mL was 41%.

`O=C(O)c1cc2cc(-c3ccccc3)ccc2o1` [Compound 1, 5-phenyl-2-benzofurancarboxylic acid] was tested. Which inhibition at 100 µg/mL did it give?
Its inhibition at 100 µg/mL is 49%.

For `COc1ccc(-c2ccc3oc(C(=O)O)cc3c2)cc1` [Compound 17, 5-(4-methoxyphenyl)-2-benzofurancarboxylic acid], which inhibition at 100 µg/mL is on record?
The inhibition at 100 µg/mL was 56%.

With `CCCCCCOc1ccc2oc(C(=O)O)cc2c1` [Compound 7] as the molecule, how does the inhibition at 100 µg/mL read?
Its inhibition at 100 µg/mL is 78%.

Which inhibition at 100 µg/mL does the source give for `CCC(C)c1ccc2oc(C(=O)O)cc2c1` (stereo not drawn) [Compound 3] here?
Its inhibition at 100 µg/mL is 64%.

Which inhibition at 100 µg/mL does the source give for `COc1cccc2cc(C(=O)O)oc12` [Compound 13] here?
Its inhibition at 100 µg/mL is 22%.

For `O=C(O)c1cc2cc(Cc3ccccc3)ccc2o1` [Compound 8], which inhibition at 100 µg/mL is on record?
The inhibition at 100 µg/mL was 87%.

`O=C(O)C1Cc2cc(C3CCCCC3)ccc2O1` (stereo not drawn) [Compound 19] was tested. Which inhibition at 100 µg/mL did it give?
The inhibition at 100 µg/mL was 72%.

Which inhibition at 100 µg/mL does the source give for `O=C(O)c1cc2cccc(Cl)c2o1` [Compound 15] here?
Its inhibition at 100 µg/mL is 59%.

— patent US4213998A, “Inhibition of lipogenesis” (Shell Oil Company, priority 1979, dated 1980)
